Experimental data taken from patent US20100292255A1, “Therapeutic Compounds and Their Use in Treating Diseases and Disorders” (Myriad Pharmaceuticals, Inc., priority 2007, published 2010).

Target: T1, purified human Hsp90
T1 construct: purified human Hsp90 (Stressgen, SPP-770)
Assay: Hsp90 binding assay: displacement of BODIPY-labeled geldanamycin measured by fluorescence polarization
Settings: BODIPY-GM 10 nM, Hsp90 30 nM, overnight at room temperature; for IC50: read-out: GM displacement from purified Hsp90 measured by FP IC 50; for GM displacement from purified Hsp90 measured by FP Inhibition by 5 μM compd. (%): 5 μM compound
How it was run: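 Purified human Hsp90 at 30 nM and 10 nM BODIPY-GM tracer were incubated overnight at room temperature with compound in 2% DMSO. The buffer was 20 mM HEPES-KOH pH 7.3, 50 mM KCl, 5 mM MgCl2, 20 mM Na2MoO4, 2 mM DTT. Background-subtracted mP values read at 485/530 nm were normalized to DMSO wells to give % inhibition.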

Structure (SMILES) | IC50 [nM] | GM displacement from purified Hsp90 measured by FP Inhibition by 5 μM compd. (%)
C[C@H](NC(=O)CO)C(=O)N1CCC(Cn2c(Sc3cc4c(cc3Br)OCCO4)nc3c(N)ncnc32)CC1 [compound 131, N-{(1S)-2-[4-({6-Amino-8-[(7-bromo-2,3-dihydro-1,4-benzodioxin-6-yl)thio]-9H-purin-9-yl}methyl)piperidin-1-yl]-1-methyl-2-oxoethyl}-2-hydroxyacetamide] | 1900 | 
N#Cc1cc2c(cc1Sc1nc3c(N)ncnc3n1CCC1CCN(C(=O)[C@@H](N)C(F)(F)F)CC1)OCO2 [compound 133, 6-[(6-Amino-9-{2-[1-(3,3,3-trifluoroalanyl)piperidin-4-yl]ethyl}-9H-purin-8-yl)thio]-1,3-benzodioxole-5-carbonitrile] | 505 | 
N#Cc1cc2c(cc1Sc1nc3c(N)ncn(CCC4CCN(C(=O)[C@@H](N)C(F)(F)F)CC4)c-3n1)OCO2 [compound 134, 6-[(6-amino-3-{2-[1-(3,3,3-trifluoroalanyl)piperidin-4-yl]ethyl}-3H-purin-8-yl)thio]-1,3-benzodioxole-5-carbonitrile] |  | 9.0
N#Cc1cc2c(cc1Sc1nc3c(N)ncnc3n1CCC1CCN(C(=O)[C@@H]3CC(F)(F)CN3)CC1)OCO2 [compound 135, 6-[(6-Amino-9-{2-[1-(4,4-difluoro-L-prolyl)piperidin-4-yl]ethyl}-9H-purin-8-yl)thio]-1,3-benzodioxole-5-carbonitrile] | 900 | 
CN(C)C(CCn1cnc(N)c2nc(Sc3cc4c(cc3Br)OCCO4)nc1-2)C1CC1 (centres unmarked) [compound 143, 8-[(7-bromo-2,3-dihydro-1,4-benzodioxin-6-yl)thio]-3-[3-cyclopropyl-3-(dimethylamino)propyl]-3H-purin-6-amine] |  | 27.0

Next, values leading:

IC50 [nM] | GM displacement from purified Hsp90 measured by FP Inhibition by 5 μM compd. (%) | Structure (SMILES)
110 |  | C[C@@H](N)C(=O)N1CCCC(CCCn2c(Sc3cc4c(cc3Br)OCO4)nc3c(N)ncnc32)C1 (stereo partly drawn) [compound 136, 9-(3-{1-[(2R)-2-Aminopropanoyl]piperidin-3-yl}propyl)-8-[(6-bromo-1,3-benzodioxol-5-yl)thio]-9H-purin-6-amine]
240 |  | CC(=O)NC(CCn1c(Sc2cc3c(cc2Br)OCO3)nc2c(N)ncnc21)C1CC1 (centres unmarked) [compound 137, N-{3-[6-Amino-8-(6-bromo-benzo[1,3]dioxol-5-ylsulfanyl)-purin-9-yl]-1-cyclopropyl-propyl}-acetamide]
240 |  | CC(=O)NC(CCn1c(Sc2cc3c(cc2Br)OCCO3)nc2c(N)ncnc21)C1CC1 (centres unmarked) [compound 139, N-(3-{6-Amino-8-[(7-bromo-2,3-dihydro-1,4-benzodioxin-6-yl)thio]-9H-purin-9-yl}-1-cyclopropylpropyl)acetamide]
45 |  | CC(=O)N1CCC(CCn2c(Sc3cc4c(cc3Br)OCCO4)nc3c(N)ncnc32)CC1 [compound 140, 9-[2-(1-Acetylpiperidin-4-yl)ethyl]-8-[(7-bromo-2,3-dihydro-1,4-benzodioxin-6-yl)thio]-9H-purin-6-amine]
170 |  | Nc1ncnc2c1nc(Sc1cc3c(cc1Br)OCO3)n2CCC(NC(=O)CO)C1CC1 (centres unmarked) [compound 141, N-(3-{6-Amino-8-[(6-bromo-1,3-benzodioxol-5-yl)thio]-9H-purin-9-yl}-1-cyclopropylpropyl)-2-hydroxyacetamide]
205 |  | CN(C)C(CCn1c(Sc2cc3c(cc2Br)OCCO3)nc2c(N)ncnc21)C1CC1 (centres unmarked) [compound 142, 8-[(7-Bromo-2,3-dihydro-1,4-benzodioxin-6-yl)thio]-9-[3-cyclopropyl-3-(dimethylamino)propyl]-9H-purin-6-amine]
